Data on 41 compounds can be found in US10961200B2, “Small molecule inhibitors of lactate dehydrogenase and methods of use thereof” (THE UNITED STATES OF AMERICA, AS REPRESENTED BY THE …, priority 2014, dated 2021).

Structures are written as SMILES.

The assay addresses Human LDHA (Homo sapiens (Human), UniProt P00338). In words: human LDHA primary biochemical assay (resazurin/diaphorase coupled, fluorescence). The conditions noted are these: LDHA inhibitory activity, activity level based on IC50 (Table 7). An excerpt: Test compounds were placed in a Greiner Bio-One (Monroe, N.C.) 1536-well black solid bottom assay plate. 200 millimolar (mM) Tris HCl, pH 7.4, 100 micromolar […] EDTA and 0.01% TWEEN-20™, final concentration, was used as the assay buffer. The LDHA reagent was 2 nanomolar (nM) Human LDHA (Meridian Life Science, Inc., Memphis, Tenn.), final concentration, in assay buffer.
Background: The colour change of resazurin is a common sign of viable cells or microbes.
For the compound `COc1cccc(-c2cccc(-c3nn(-c4nc(C(=O)O)cs4)c(C4CC4)c3Cc3ccc(S(N)(=O)=O)c(F)c3)c2)c1` [Compound 353], the IC50 was under 100 nM. The compound `Cc1ccc(-c2cccc(-c3c(Cc4ccc(S(N)(=O)=O)cc4F)c(C4CC4)nn3-c3nc(C(=O)O)cs3)c2)cc1` [Compound 354] came in with an IC50 of 1000 to 57000 nM.

As to `Cc1ccc(-c2cccc(-c3nn(-c4nc(C(=O)O)cs4)c(C4CC4)c3Cc3ccc(S(N)(=O)=O)cc3F)c2)cc1` [Compound 355], the IC50 was under 100 nM. Compound `NS(=O)(=O)c1ccc(Cc2c(C3CC3)nn(-c3nc(C(=O)O)cs3)c2-c2cccc(-c3ccc(F)cc3)c2)c(F)c1` [Compound 356] yielded a half-inhibitory concentration (IC50) of 1000 to 57000 nM. Turning to `NS(=O)(=O)c1ccc(Cc2c(-c3cccc(-c4ccc(F)cc4)c3)nn(-c3nc(C(=O)O)cs3)c2C2CC2)c(F)c1` [Compound 357], the half-inhibitory concentration (IC50) is under 100 nM. The value for `NS(=O)(=O)c1ccc(Cc2c(C3CC3)nn(-c3nc(C(=O)O)cs3)c2-c2cccc(-c3cccc(F)c3)c2)c(F)c1` [Compound 358] was 1000 to 57000 nM; that for `NS(=O)(=O)c1ccc(Cc2c(-c3cccc(-c4cccc(F)c4)c3)nn(-c3nc(C(=O)O)cs3)c2C2CC2)c(F)c1` [Compound 359] was under 100 nM. In the case of `COc1cccc(-c2cccc(-c3c(Cc4ccc(S(N)(=O)=O)cc4F)c(C4CC4)nn3-c3nc(C(=O)O)cs3)c2)c1` [Compound 360] it was 1000 to 57000 nM; in that of `COc1cccc(-c2cccc(-c3nn(-c4nc(C(=O)O)cs4)c(C4CC4)c3Cc3ccc(S(N)(=O)=O)cc3F)c2)c1` [Compound 361], under 100 nM; in that of `Cc1ccc(-c2cc(-c3nn(-c4nc(C(=O)O)cs4)c(CC4CC4)c3Cc3ccc(S(N)(=O)=O)c(F)c3)ccc2F)cc1` [Compound 362], under 100 nM. The value for `Cc1ccc(-c2cccc(-c3nn(-c4nc(C(=O)O)cs4)c(CC4CC4)c3Cc3ccc(S(N)(=O)=O)cc3F)c2)cc1` [Compound 363] was under 100 nM; that for `N[S+](=O)([O-])c1ccc(Cc2c(-c3ccc(F)c(-c4ccc(F)cc4)c3)nn(-c3nc(C(=O)O)cs3)c2CC2CC2)c(F)c1` [Compound 364] was under 100 nM; that for `NS(=O)(=O)c1ccc(Cc2c(-c3cccc(N4CCC(C(F)(F)F)CC4)c3)nn(-c3nc(C(=O)O)cs3)c2CC2CC2)cc1F` [Compound 392] was under 100 nM. Compound `COc1ccc(-c2cc(O)n(-c3nc(C(=O)O)cs3)n2)cc1` [Compound 424] yielded an IC50 of over 57000 nM. The value for `O=C(O)c1csc(-n2nc(-c3ccc(F)cc3)cc2O)n1` [Compound 425] was over 57000 nM. `O=C(O)c1csc(-n2nc(-c3ccc(Cl)cc3)cc2C(F)(F)F)n1` [Compound 427] registered an IC50 of 1000 to 57000 nM. The value for `Cc1oc(=O)oc1COC(=O)c1csc(-n2nc(-c3ccc(F)c(C#CC4CCCC4)c3)c(Cc3ccc(S(N)(=O)=O)c(F)c3)c2CC2CC2)n1` [Compound 441] was over 57000 nM; that for `CCOC(=O)c1csc(-n2nc(-c3ccc(F)c(C#Cc4ccc(C)s4)c3)c(Cc3ccc(S(N)(=O)=O)c(F)c3)c2CC2CC2)n1` [Compound 447] was over 57000 nM; that for `CC(C)(C)/C=C/c1cc(-c2nn(-c3nc(C(=O)O)cs3)c(CC3CC3)c2Cc2ccc([S+](N)(=O)[O-])c(F)c2)ccc1F` [Compound 448] was under 100 nM.

`Cc1ccc(C#Cc2cccc(-c3nn(-c4nc(C(=O)O)cs4)c(CC4CC4)c3Cc3ccc(S(N)(=O)=O)c(F)c3)c2)s1` [Compound 449] registered an IC50 of under 100 nM. The compound `C/C=C(\C)c1cc(-c2nn(-c3nc(C(=O)O)cs3)c(CC3CC3)c2Cc2ccc(S(N)(=O)=O)c(F)c2)ccc1F` [Compound 450] came in with a concentration for half-maximal inhibition (IC50) of under 100 nM. Turning to `NS(=O)(=O)c1ccc(Cc2c(-c3cccc4ccccc34)nn(-c3nc(C(=O)O)cs3)c2O)cc1` [Compound 451], the concentration for half-maximal inhibition (IC50) fell in the range of 1000 to 57000 nM. As for `NS(=O)(=O)c1ccc(Cc2c(-c3cccnc3)nn(-c3nc(C(=O)O)cs3)c2O)cc1` [Compound 453, 2-(5-hydroxy-3-(pyridin-3-yl)-4-(4-sulfamoylbenzyl)-1H-pyrazol-1-yl)thiazole-4-carboxylic acid], the half-maximal inhibitory concentration (IC50) is 1000 to 57000 nM. The value for `NS(=O)(=O)c1ccc(Cc2c(-c3cccc4cc(F)ccc34)nn(-c3nc(C(=O)O)cs3)c2O)cc1` [Compound 454, 2-(3-(6-fluoronaphthalen-1-(57%)yl)-5-hydroxy-4-(4-sulfamoylbenzyl)-1H-pyrazol-1-yl)thiazole-4-carboxylic acid] was 1000 to 57000 nM. Consider `COc1c(Cc2ccc(S(N)(=O)=O)cc2)c(-c2ccc(F)c(F)c2)nn1-c1nc(C(=O)O)cs1` [Compound 455, 2-(3-(3,4-difluorophenyl)-5-methoxy-4-(4-sulfamoylbenzyl)-1H-pyrazol-1-yl)thiazole-4-carboxylic acid], for which the half-maximal inhibitory concentration (IC50) lay within 100 to 1000 nM. In the case of `COc1cccc(-c2cc(-c3nn(-c4nc(C(=O)O)cs4)cc3Cc3ccc(S(N)(=O)=O)cc3)ccc2F)c1` [Compound 456, 2-(3-(6-fluoro-3′-methoxy-[1,1′-biphenyl]-3-yl)-4-(4-sulfamoylbenzyl)-1H-pyrazol-1-yl)thiazole-4-carboxylic acid] it was under 100 nM. With `NS(=O)(=O)c1ccc(Cc2cn(-c3nc(C(=O)O)cs3)nc2-c2ccc(F)c(-c3cccc(Cl)c3)c2)cc1` [Compound 457, 2-(3-(3′-chloro-6-fluoro-[1,1′-biphenyl]-3-yl)-4-(4-sulfamoylbenzyl)-1H-pyrazol-1-yl)thiazole-4-carboxylic acid], the half-inhibitory concentration (IC50) was under 100 nM. In the case of `CC(C)Oc1cccc(-c2nn(-c3nc(C(=O)O)cs3)cc2Cc2ccc(S(N)(=O)=O)cc2)c1` [Compound 459, 2-(3-(3-isopropoxyphenyl)-4-(4-sulfamoylbenzyl)-1H-pyrazol-1-yl)thiazole-4-carboxylic acid] it was under 100 nM; in that of `NS(=O)(=O)c1ccc(Cc2cn(-c3nc(C(=O)O)cs3)nc2-c2cccc(OC3CCCC3)c2)cc1` [Compound 460, 2-(3-(3-(cyclopentyloxy)phenyl)-4-(4-sulfamoylbenzyl)-1H-pyrazol-1-yl)thiazole-4-carboxylic acid], under 100 nM. In the case of `NS(=O)(=O)c1ccc(Cc2cn(-c3nc(C(=O)O)cs3)nc2-c2cccc(OCC3CCOC3)c2)cc1` (centres unmarked) [Compound 461, 2-(4-(4-sulfamoylbenzyl)-3-(3-((tetrahydrofuran-3-yl)methoxy)phenyl)-1H-pyrazol-1-yl)thiazole-4-carboxylic acid], the IC50 is under 100 nM.

Regarding `COc1cccc(COc2cccc(-c3nn(-c4nc(C(=O)O)cs4)cc3Cc3ccc(S(N)(=O)=O)cc3)c2)c1` [Compound 462, 2-(3-(3-((3-methoxybenzyl)oxy)phenyl)-4-(4-sulfamoylbenzyl)-1H-pyrazol-1-yl)thiazole-4-carboxylic acid], the IC50 is under 100 nM.

In turn, `NS(=O)(=O)c1ccc(Cc2cn(-c3nc(C(=O)O)cs3)nc2-c2cccc(OCC3CCCO3)c2)cc1` (centres unmarked) [Compound 463, 2-(4-(4-sulfamoylbenzyl)-3-(3-((tetrahydrofuran-2-yl)methoxy)phenyl)-1H-pyrazol-1-yl)thiazole-4-carboxylic acid] gave an IC50 of under 100 nM. The value for `NS(=O)(=O)c1ccc(Cc2cn(-c3nc(C(=O)O)cs3)nc2-c2cccc(Oc3ccccc3)c2)cc1` [Compound 464, 2-(3-(3-phenoxyphenyl)-4-(4-sulfamoylbenzyl)-1H-pyrazol-1-yl)thiazole-4-carboxylic acid] was under 100 nM; that for `NS(=O)(=O)c1ccc(Cc2cnn(-c3nc(C(=O)O)cs3)c2-c2ccc3ccccc3c2)cc1` [Compound 474, 2-(5-(naphthalen-2-yl)-4-(4-sulfamoylbenzyl)-1H-pyrazol-1-yl)thiazole-4-carboxylic acid] was under 100 nM. The value for `NS(=O)(=O)c1ccc(Cc2cnn(-c3nc(C(=O)O)cs3)c2-c2cccnc2)cc1` [Compound 475, 2-(5-(pyridin-3-yl)-4-(4-sulfamoylbenzyl)-1H-pyrazol-1-yl)thiazole-4-carboxylic acid] was 100 to 1000 nM; that for `Cc1ccc(-c2cc(-c3nn(-c4nc(C(=O)O)cs4)cc3Cc3ccc(S(N)(=O)=O)cc3)ccc2F)cc1` [Compound 476, 2-(3-(6-fluoro-4′-methyl-[1,1′-biphenyl]-3-yl)-4-(4-sulfamoylbenzyl)-1H-pyrazol-1-yl)thiazole-4-carboxylic acid] was under 100 nM. The value for `NS(=O)(=O)c1ccc(Cc2c(-c3ccc(F)c(-c4ccc(F)cc4)c3)nn(-c3nc(C(=O)O)cs3)c2C2CC2)cc1` [Compound 482, 2-(5-cyclopropyl-3-(4′,6-difluoro-[1,1′-biphenyl]-3-yl)-4-(4-sulfamoylbenzyl)-1H-pyrazol-1-yl)thiazole-4-carboxylic acid] was under 100 nM.

In the case of `COc1cccc(-c2cc(-c3nn(-c4nc(C(=O)O)cs4)c(C4CC4)c3Cc3ccc(S(N)(=O)=O)cc3)ccc2F)c1` [Compound 483, 2-(5-cyclopropyl-3-(6-fluoro-3′-methoxy-[1,1′-biphenyl]-3-yl)-4-(4-sulfamoylbenzyl)-1H-pyrazol-1-yl)thiazole-4-carboxylic acid], the half-maximal inhibitory concentration (IC50) was under 100 nM. Turning to `Cc1ccc(-c2cc(-c3nn(-c4nc(C(=O)O)cs4)c(C4CC4)c3Cc3ccc(S(N)(=O)=O)cc3)ccc2F)cc1` [Compound 484, 2-(5-cyclopropyl-3-(6-fluoro-4′-methyl-[1,1′-biphenyl]-3-yl)-4-(4-sulfamoylbenzyl)-1H-pyrazol-1-yl)thiazole-4-carboxylic acid], the IC50 is under 100 nM. Consider `Cc1ccc(-c2nn(-c3nc(C(=O)O)cs3)cc2Cc2ccc(S(N)(=O)=O)cc2)cc1-c1cccnc1` [Compound 486, 2-(3-(4-methyl-3-(pyridin-3-yl)phenyl)-4-(4-sulfamoylbenzyl)-1H-pyrazol-1-yl)thiazole-4-carboxylic acid], for which the IC50 was under 100 nM. `Cc1ccc(-c2nn(-c3nc(C(=O)O)cs3)cc2Cc2ccc(S(N)(=O)=O)cc2)cc1-c1cccc(N)c1` [Compound 487, 2-(3-(3′-amino-6-methyl-[1,1′-biphenyl]-3-yl)-4-(4-sulfamoylbenzyl)-1H-pyrazol-1-yl)thiazole-4-carboxylic acid] yielded a half-inhibitory concentration (IC50) of under 100 nM.

One may read the IC50 as the concentration that inhibits the measured activity by half. A high value points to weaker potency.
